The assay relates to LAPC-4, expressing wild-type AR.

Each structure is given as a SMILES string.

For `C[C@]12CCC(=O)C[C@@H]1CC[C@@H]1[C@@H]2CC[C@]2(C)[C@@H](O)CC[C@@H]12` [DHT, 5α-dihydrotestosterone], the PSMA expression result was “low level of PSMA”.
